Data reported in PMC3673835, “Synthesis and biological evaluation of 1, 3-dihydroxyxanthone mannich base derivatives as anticholinesterase agents” (Chemistry Central Journal, 2013).

Each compound was assayed against Electric-eel AChE (EC 3.1.1.7) (Electrophorus electricus, UniProt O42275) (assay: biochemical). Conditions: means ± standard deviation of triplicate independent experiments; substrate acetylthiocholine iodide; 37°C, pH 8.0.
Electric-eel AChE (EC 3.1.1.7), sequence (O42275 24-633): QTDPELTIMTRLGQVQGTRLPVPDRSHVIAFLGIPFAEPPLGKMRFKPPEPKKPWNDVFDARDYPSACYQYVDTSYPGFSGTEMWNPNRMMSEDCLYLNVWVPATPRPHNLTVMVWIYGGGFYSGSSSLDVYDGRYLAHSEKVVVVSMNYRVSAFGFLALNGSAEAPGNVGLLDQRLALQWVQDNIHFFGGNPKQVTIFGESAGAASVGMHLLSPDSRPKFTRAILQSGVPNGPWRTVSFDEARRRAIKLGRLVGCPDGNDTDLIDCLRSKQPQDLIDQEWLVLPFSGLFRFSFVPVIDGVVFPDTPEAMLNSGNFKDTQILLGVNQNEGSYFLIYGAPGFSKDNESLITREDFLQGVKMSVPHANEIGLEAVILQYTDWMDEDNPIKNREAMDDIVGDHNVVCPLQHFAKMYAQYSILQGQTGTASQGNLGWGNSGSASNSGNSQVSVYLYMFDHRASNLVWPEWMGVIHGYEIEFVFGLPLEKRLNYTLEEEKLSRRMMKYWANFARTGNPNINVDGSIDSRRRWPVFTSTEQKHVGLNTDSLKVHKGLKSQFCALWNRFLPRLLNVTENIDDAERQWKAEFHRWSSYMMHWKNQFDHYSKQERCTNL

| Structure (SMILES) | IC50 |
| --- | --- |
| C=CCOc1cc2oc3ccccc3c(=O)c2c(O)c1CN1CCCCC1 [3d, 3-allyloxy-1-hydroxy-2-(piperidin-1-ylmethyl)-9H-xanthen-9-one] | 3.7 ± 0.16 µM |
| O=c1c2ccccc2oc2cc(O)c(CN3CCCC3)c(O)c12 [1c, 1,3-dihydroxy-2-(pyrrolidin-1-ylmethyl)-9H-xanthen-9-one] | 81.9 ± 2.04 µM |
| COc1cc2oc3ccccc3c(=O)c2c(O)c1CN1CCOCC1 [2e, 1-hydroxy-3-methoxy-2-(morpholinomethyl)-9H-xanthen-9-one] | 7.76 ± 2.36 µM |
| CCN(CC)Cc1c(OC)cc2oc3ccccc3c(=O)c2c1O [2b, 2-((diethylamino)methyl)-1-hydroxy-3-methoxy-9H-xanthen-9-one] | 2.4 ± 0.49 µM |
| CN(C)Cc1c(O)cc2oc3ccccc3c(=O)c2c1O [1a, 2-((dimethylamino)methyl)-1,3-dihydroxy-9H-xanthen-9-one] | 107 ± 5.78 µM |
| O=c1c2ccccc2oc2cc(O)c(CN3CCCCC3)c(O)c12 [1d, 1,3-dihydroxy-2-(piperidin-1-ylmethyl)-9H-xanthen-9-one] | 79.3 ± 5.78 µM |
| C=CCOc1cc2oc3ccccc3c(=O)c2c(O)c1CN(CC)CC [3b, 3-allyloxy-2-((diethylamino)methyl)-1-hydroxy-9H-xanthen-9-one] | 6 ± 0.33 µM |
| CCN(CC)Cc1c(OCC=C(C)C)cc2oc3ccccc3c(=O)c2c1O [4b, 2-((diethylamino)methyl)-1-hydroxy-3-(3-methylbut-2-enyloxy)-9H-xanthen-9-one] | 2.61 ± 0.13 µM |
| COc1cc2oc3ccccc3c(=O)c2c(O)c1CN(C)C [2a, 2-((dimethylamino)methyl)-1-hydroxy-3-methoxy-9H-xanthen-9-one] | 2.34 ± 0.2 µM |
| C=CCOc1cc2oc3ccccc3c(=O)c2c(O)c1CN1CCOCC1 [3e, 3-allyloxy-1-hydroxy-2-(morpholinomethyl)-9H-xanthen-9-one] | 74.7 ± 4.07 µM |
| C=CCOc1cc2oc3ccccc3c(=O)c2c(O)c1CN(C)C [3a, 3-allyloxy-2-((dimethylamino)methyl)-1-hydroxy-9H-xanthen-9-one] | 5.84 ± 1.19 µM |
| CC(C)=CCOc1cc2oc3ccccc3c(=O)c2c(O)c1CN1CCCCC1 [4d, 1-hydroxy-3-(3-methylbut-2-enyloxy)-2-(piperidin-1-ylmethyl)-9H-xanthen-9-one] | 55.3 ± 8.15 µM |
| CC(C)=CCOc1cc2oc3ccccc3c(=O)c2c(O)c1CN(C)C [4a, 2-((dimethylamino)methyl)-1-hydroxy-3-(3-methylbut-2-enyloxy)-9H-xanthen-9-one] | 2.63 ± 0.07 µM |
| CCN(CC)Cc1c(O)cc2oc3ccccc3c(=O)c2c1O [1b, 2-((diethylamino)methyl)-1,3-dihydroxy-9H-xanthen-9-one] | 73.7 ± 1.36 µM |
| O=c1c2ccccc2oc2cc(O)c(CN3CCOCC3)c(O)c12 [1e, 1,3-dihydroxy-2-(morpholinomethyl)-9H-xanthen-9-one] | 95.4 ± 1.7 µM |
| COc1cc2oc3ccccc3c(=O)c2c(O)c1CN1CCCC1 [2c, 1-hydroxy-3-methoxy-2-(pyrrolidin-1-ylmethyl)-9H-xanthen-9-one] | 4.2 ± 0.29 µM |
| COc1cc2oc3ccccc3c(=O)c2c(O)c1CN1CCCCC1 [2d, 1-hydroxy-3-methoxy-2-(piperidin-1-ylmethyl)-9H-xanthen-9-one] | 7 ± 0.07 µM |
| CC(C)=CCOc1cc2oc3ccccc3c(=O)c2c(O)c1CN1CCCC1 [4c, 1-hydroxy-3-(3-methylbut-2-enyloxy)-2-(pyrrolidin-1-ylmethyl)-9H-xanthen-9-one] | 5.85 ± 0.32 µM |
| C=CCOc1cc2oc3ccccc3c(=O)c2c(O)c1CN1CCCC1 [3c, 3-allyloxy-1-hydroxy-2-(pyrrolidin-1-ylmethyl)-9H-xanthen-9-one] | 4.36 ± 0.58 µM |
| CC(C)=CCOc1cc2oc3ccccc3c(=O)c2c(O)c1CN1CCOCC1 [4e] | 24.2 ± 0.4 µM |

The compounds below were run against horse-serum BuChE (EC3.1.1.8) (Equus caballus, UniProt P81908) (assay: biochemical). Conditions: at 100 μM.
horse-serum BuChE (EC3.1.1.8), sequence (P81908 whole entry): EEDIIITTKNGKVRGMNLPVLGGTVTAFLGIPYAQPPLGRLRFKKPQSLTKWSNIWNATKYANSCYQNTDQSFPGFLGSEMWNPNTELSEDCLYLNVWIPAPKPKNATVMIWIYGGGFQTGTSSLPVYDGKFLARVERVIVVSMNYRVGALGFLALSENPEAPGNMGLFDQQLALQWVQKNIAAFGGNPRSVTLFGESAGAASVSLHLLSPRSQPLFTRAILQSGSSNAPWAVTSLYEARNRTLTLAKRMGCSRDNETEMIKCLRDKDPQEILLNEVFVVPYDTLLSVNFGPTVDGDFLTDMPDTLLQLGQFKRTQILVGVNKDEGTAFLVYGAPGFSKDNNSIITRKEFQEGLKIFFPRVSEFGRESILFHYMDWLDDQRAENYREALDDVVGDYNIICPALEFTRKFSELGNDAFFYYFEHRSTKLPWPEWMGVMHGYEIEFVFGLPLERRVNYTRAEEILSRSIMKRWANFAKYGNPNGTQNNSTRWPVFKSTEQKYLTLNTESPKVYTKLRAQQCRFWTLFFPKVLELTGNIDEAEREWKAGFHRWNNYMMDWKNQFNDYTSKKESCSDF
Type: biochemical

| Structure (SMILES) | Inhibition activity against BuChE at 100 μM |
| --- | --- |
| COc1cc2oc3ccccc3c(=O)c2c(O)c1CN1CCOCC1 [2e, 1-hydroxy-3-methoxy-2-(morpholinomethyl)-9H-xanthen-9-one] | did not show any inhibition activity |
| C=CCOc1cc2oc3ccccc3c(=O)c2c(O)c1CN1CCOCC1 [3e, 3-allyloxy-1-hydroxy-2-(morpholinomethyl)-9H-xanthen-9-one] | did not show any inhibition activity |
| O=c1c2ccccc2oc2cc(O)c(CN3CCOCC3)c(O)c12 [1e, 1,3-dihydroxy-2-(morpholinomethyl)-9H-xanthen-9-one] | did not show any inhibition activity |

Same assay, conditions: ratio IC50 BuChE / IC50 AChE

| Structure (SMILES) | Selectivity for BuChE/AChE |
| --- | --- |
| C=CCOc1cc2oc3ccccc3c(=O)c2c(O)c1CN1CCCCC1 [3d, 3-allyloxy-1-hydroxy-2-(piperidin-1-ylmethyl)-9H-xanthen-9-one] | 0.47 |
| O=c1c2ccccc2oc2cc(O)c(CN3CCCC3)c(O)c12 [1c, 1,3-dihydroxy-2-(pyrrolidin-1-ylmethyl)-9H-xanthen-9-one] | 0.43 |
| COc1cc2oc3ccccc3c(=O)c2c(O)c1CN1CCOCC1 [2e, 1-hydroxy-3-methoxy-2-(morpholinomethyl)-9H-xanthen-9-one] | >12.89 |
| CCN(CC)Cc1c(OC)cc2oc3ccccc3c(=O)c2c1O [2b, 2-((diethylamino)methyl)-1-hydroxy-3-methoxy-9H-xanthen-9-one] | 2.83 |
| CN(C)Cc1c(O)cc2oc3ccccc3c(=O)c2c1O [1a, 2-((dimethylamino)methyl)-1,3-dihydroxy-9H-xanthen-9-one] | 0.59 |
| O=c1c2ccccc2oc2cc(O)c(CN3CCCCC3)c(O)c12 [1d, 1,3-dihydroxy-2-(piperidin-1-ylmethyl)-9H-xanthen-9-one] | 0.54 |
| C=CCOc1cc2oc3ccccc3c(=O)c2c(O)c1CN(CC)CC [3b, 3-allyloxy-2-((diethylamino)methyl)-1-hydroxy-9H-xanthen-9-one] | 0.26 |
| CCN(CC)Cc1c(OCC=C(C)C)cc2oc3ccccc3c(=O)c2c1O [4b, 2-((diethylamino)methyl)-1-hydroxy-3-(3-methylbut-2-enyloxy)-9H-xanthen-9-one] | 0.20 |
| COc1cc2oc3ccccc3c(=O)c2c(O)c1CN(C)C [2a, 2-((dimethylamino)methyl)-1-hydroxy-3-methoxy-9H-xanthen-9-one] | 4.66 |
| C=CCOc1cc2oc3ccccc3c(=O)c2c(O)c1CN1CCOCC1 [3e, 3-allyloxy-1-hydroxy-2-(morpholinomethyl)-9H-xanthen-9-one] | >1.34 |
| C=CCOc1cc2oc3ccccc3c(=O)c2c(O)c1CN(C)C [3a, 3-allyloxy-2-((dimethylamino)methyl)-1-hydroxy-9H-xanthen-9-one] | 0.80 |
| CC(C)=CCOc1cc2oc3ccccc3c(=O)c2c(O)c1CN1CCCCC1 [4d, 1-hydroxy-3-(3-methylbut-2-enyloxy)-2-(piperidin-1-ylmethyl)-9H-xanthen-9-one] | 0.10 |
| CC(C)=CCOc1cc2oc3ccccc3c(=O)c2c(O)c1CN(C)C [4a, 2-((dimethylamino)methyl)-1-hydroxy-3-(3-methylbut-2-enyloxy)-9H-xanthen-9-one] | 0.57 |
| CCN(CC)Cc1c(O)cc2oc3ccccc3c(=O)c2c1O [1b, 2-((diethylamino)methyl)-1,3-dihydroxy-9H-xanthen-9-one] | 0.50 |
| O=c1c2ccccc2oc2cc(O)c(CN3CCOCC3)c(O)c12 [1e, 1,3-dihydroxy-2-(morpholinomethyl)-9H-xanthen-9-one] | >1.05 |
| COc1cc2oc3ccccc3c(=O)c2c(O)c1CN1CCCC1 [2c, 1-hydroxy-3-methoxy-2-(pyrrolidin-1-ylmethyl)-9H-xanthen-9-one] | 1.72 |
| COc1cc2oc3ccccc3c(=O)c2c(O)c1CN1CCCCC1 [2d, 1-hydroxy-3-methoxy-2-(piperidin-1-ylmethyl)-9H-xanthen-9-one] | 1.53 |
| CC(C)=CCOc1cc2oc3ccccc3c(=O)c2c(O)c1CN1CCCC1 [4c, 1-hydroxy-3-(3-methylbut-2-enyloxy)-2-(pyrrolidin-1-ylmethyl)-9H-xanthen-9-one] | 0.49 |
| C=CCOc1cc2oc3ccccc3c(=O)c2c(O)c1CN1CCCC1 [3c, 3-allyloxy-1-hydroxy-2-(pyrrolidin-1-ylmethyl)-9H-xanthen-9-one] | 0.70 |
| CC(C)=CCOc1cc2oc3ccccc3c(=O)c2c(O)c1CN1CCOCC1 [4e] | 0.37 |

Same assay, conditions: substrate butyrylthiocholine; 37°C, pH 8.0

| Structure (SMILES) | IC50 |
| --- | --- |
| C=CCOc1cc2oc3ccccc3c(=O)c2c(O)c1CN1CCCCC1 [3d, 3-allyloxy-1-hydroxy-2-(piperidin-1-ylmethyl)-9H-xanthen-9-one] | 1.73 ± 0.08 µM |
| O=c1c2ccccc2oc2cc(O)c(CN3CCCC3)c(O)c12 [1c, 1,3-dihydroxy-2-(pyrrolidin-1-ylmethyl)-9H-xanthen-9-one] | 35.5 ± 1.68 µM |
| COc1cc2oc3ccccc3c(=O)c2c(O)c1CN1CCOCC1 [2e, 1-hydroxy-3-methoxy-2-(morpholinomethyl)-9H-xanthen-9-one] | > 100 µM |
| CCN(CC)Cc1c(OC)cc2oc3ccccc3c(=O)c2c1O [2b, 2-((diethylamino)methyl)-1-hydroxy-3-methoxy-9H-xanthen-9-one] | 6.79 ± 0.56 µM |
| CN(C)Cc1c(O)cc2oc3ccccc3c(=O)c2c1O [1a, 2-((dimethylamino)methyl)-1,3-dihydroxy-9H-xanthen-9-one] | 62.9 ± 0.84 µM |
| O=c1c2ccccc2oc2cc(O)c(CN3CCCCC3)c(O)c12 [1d, 1,3-dihydroxy-2-(piperidin-1-ylmethyl)-9H-xanthen-9-one] | 43 ± 1.76 µM |
| C=CCOc1cc2oc3ccccc3c(=O)c2c(O)c1CN(CC)CC [3b, 3-allyloxy-2-((diethylamino)methyl)-1-hydroxy-9H-xanthen-9-one] | 1.54 ± 0.14 µM |
| CCN(CC)Cc1c(OCC=C(C)C)cc2oc3ccccc3c(=O)c2c1O [4b, 2-((diethylamino)methyl)-1-hydroxy-3-(3-methylbut-2-enyloxy)-9H-xanthen-9-one] | 0.51 ± 0.01 µM |
| COc1cc2oc3ccccc3c(=O)c2c(O)c1CN(C)C [2a, 2-((dimethylamino)methyl)-1-hydroxy-3-methoxy-9H-xanthen-9-one] | 10.9 ± 0.2 µM |
| C=CCOc1cc2oc3ccccc3c(=O)c2c(O)c1CN1CCOCC1 [3e, 3-allyloxy-1-hydroxy-2-(morpholinomethyl)-9H-xanthen-9-one] | > 100 µM |
| C=CCOc1cc2oc3ccccc3c(=O)c2c(O)c1CN(C)C [3a, 3-allyloxy-2-((dimethylamino)methyl)-1-hydroxy-9H-xanthen-9-one] | 4.66 ± 0.64 µM |
| CC(C)=CCOc1cc2oc3ccccc3c(=O)c2c(O)c1CN1CCCCC1 [4d, 1-hydroxy-3-(3-methylbut-2-enyloxy)-2-(piperidin-1-ylmethyl)-9H-xanthen-9-one] | 5.61 ± 0.08 µM |
| CC(C)=CCOc1cc2oc3ccccc3c(=O)c2c(O)c1CN(C)C [4a, 2-((dimethylamino)methyl)-1-hydroxy-3-(3-methylbut-2-enyloxy)-9H-xanthen-9-one] | 1.49 ± 0.03 µM |
| CCN(CC)Cc1c(O)cc2oc3ccccc3c(=O)c2c1O [1b, 2-((diethylamino)methyl)-1,3-dihydroxy-9H-xanthen-9-one] | 37 ± 0.56 µM |
| O=c1c2ccccc2oc2cc(O)c(CN3CCOCC3)c(O)c12 [1e, 1,3-dihydroxy-2-(morpholinomethyl)-9H-xanthen-9-one] | > 100 µM |
| COc1cc2oc3ccccc3c(=O)c2c(O)c1CN1CCCC1 [2c, 1-hydroxy-3-methoxy-2-(pyrrolidin-1-ylmethyl)-9H-xanthen-9-one] | 7.21 ± 0.75 µM |
| COc1cc2oc3ccccc3c(=O)c2c(O)c1CN1CCCCC1 [2d, 1-hydroxy-3-methoxy-2-(piperidin-1-ylmethyl)-9H-xanthen-9-one] | 10.6 ± 0.22 µM |
| CC(C)=CCOc1cc2oc3ccccc3c(=O)c2c(O)c1CN1CCCC1 [4c, 1-hydroxy-3-(3-methylbut-2-enyloxy)-2-(pyrrolidin-1-ylmethyl)-9H-xanthen-9-one] | 2.89 ± 0.07 µM |
| C=CCOc1cc2oc3ccccc3c(=O)c2c(O)c1CN1CCCC1 [3c, 3-allyloxy-1-hydroxy-2-(pyrrolidin-1-ylmethyl)-9H-xanthen-9-one] | 3.05 ± 0.13 µM |
| CC(C)=CCOc1cc2oc3ccccc3c(=O)c2c(O)c1CN1CCOCC1 [4e] | 8.83 ± 0.36 µM |

The compounds below were run against T1, AChE (Electrophorus electricus, UniProt O42275) (assay: Enzyme kinetic assay on AChE (Lineweaver-Burk plots)). Conditions: curves intersect at the secondary quadrant.
T1 construct: purchased Sigma
T1 sequence (O42275 24-633): as the sequence (O42275 24-633) above
Type: biochemical, Electric-eel

| Structure (SMILES) | Inhibition mode on AChE |
| --- | --- |
| CCN(CC)Cc1c(OCC=C(C)C)cc2oc3ccccc3c(=O)c2c1O [4b, 2-((diethylamino)methyl)-1-hydroxy-3-(3-methylbut-2-enyloxy)-9H-xanthen-9-one] | mixed-type inhibition |

Same assay, conditions: curves intersect at the secondary quadrant, listed as 2-((diethylamino)methyl)-1-hydroxy-3-(3-methylbut-2-enyloxy)-9H-xanthen-9-one

| Structure (SMILES) | Inhibition mode on AChE |
| --- | --- |
| CCN(CC)Cc1c(OCC=C(C)C)cc2oc3ccccc3c(=O)c2c1O [4b, 2-((diethylamino)methyl)-1-hydroxy-3-(3-methylbut-2-enyloxy)-9H-xanthen-9-one] | mixed-type manner |

What follows are compounds tested against BuChE (Equus caballus, UniProt P81908) (assay: not given). Conditions: Lineweaver-Burk plots; curves intersect at the secondary quadrant.
BuChE, sequence (P81908 whole entry): as the sequence (P81908 whole entry) above
Type: biochemical

| Structure (SMILES) | Inhibition mode on BuChE |
| --- | --- |
| CCN(CC)Cc1c(OCC=C(C)C)cc2oc3ccccc3c(=O)c2c1O [4b, 2-((diethylamino)methyl)-1-hydroxy-3-(3-methylbut-2-enyloxy)-9H-xanthen-9-one] | mixed-type inhibition |

Same assay, conditions: Lineweaver-Burk plots; curves intersect at the secondary quadrant; listed as 2-((diethylamino)methyl)-1-hydroxy-3-(3-methylbut-2-enyloxy)-9H-xanthen-9-one

| Structure (SMILES) | Inhibition mode on BuChE |
| --- | --- |
| CCN(CC)Cc1c(OCC=C(C)C)cc2oc3ccccc3c(=O)c2c1O [4b, 2-((diethylamino)methyl)-1-hydroxy-3-(3-methylbut-2-enyloxy)-9H-xanthen-9-one] | mixed-type manner |
